The text below walks through data of ChEMBL document CHEMBL4610023, “An amide-based sulfenamide prodrug of gamma secretase inhibitor BMS-708163 delivers parent drug from an oral conventional solid dosage form in male beagle dog” (Bioorg Med Chem Lett, 2020).

The term solubility denotes how much of the substance goes into solution per volume. As a reminder, the half-life is the time needed for the level to fall by half in the phase considered. By AUC(0-t) is commonly meant exposure summed from dosing to a finite time, without extrapolation to infinity. Higher therefore signals high exposure. The Cmax is the peak of the concentration-time curve. As a reminder, the Tmax is the time from dosing to the highest level.

SMILES strings stand for the structures. Converted amounts (≈) assume the structure as drawn.

The nature of data set [1]: Aqueous solubility of compound at pH 6.5. In kind it is physicochemical. As to conditions: aqueous solution.
Data set [2] is described as follows: Chemical stability of compound in aqueous solution assessed as half life at 100 ug/ml and pH 1. In kind it is physicochemical.
Data set [3] is described as follows: Chemical stability of compound in aqueous solution assessed as half life at 100 ug/ml and pH 7.4. In kind it is physicochemical.
Data set [4] can be described thus: Aqueous solubility of compound at pH 2. In kind it is physicochemical. As to conditions: aqueous solution.
Data set [5] can be described thus: Chemical stability of compound in aqueous solution assessed as half life at 100 ug/ml and pH 4. The data set is classed as physicochemical.
Data set [6] can be described thus: AUC (0 to 24 hrs) in Beagle dog at 3 mg/kg, po. In kind it is ADME, organism-based, Canis lupus familiaris. Further details: time < 24 hr, dose 3 mg/kg, route oral. The note with it: in vivo.
A short description of data set [7]: Oral bioavailability in Beagle dog at 3 mg/kg. The note with it: in vivo. In kind it is ADME, organism-based, Canis lupus familiaris.
A short description of data set [8]: Cmax in Beagle dog at 3 mg/kg, po. As to conditions: in vivo. The data set is classed as ADME, organism-based, Canis lupus familiaris. Further details: dose 3 mg/kg, route oral.
A short description of data set [9]: Tmax in Beagle dog at 3 mg/kg, po. In kind it is ADME, organism-based, Canis lupus familiaris. The note with it: in vivo.
Data set [10] is described as follows: Drug concentration in Beagle dog plasma at 3 mg/kg, po measured at 24 hrs. In kind it is ADME, organism-based, Canis lupus familiaris.

Regarding `O=C(NSc1ccccc1)[C@@H](CCC(F)(F)F)N(Cc1ccc(-c2ncon2)cc1F)S(=O)(=O)c1ccc(Cl)cc1`, the solubility in [1] and in data set [4] was less than 1 µg/mL throughout. For the same compound, the half-life at 100 ug/ml was greater than 20.8 days in [2], 11.2 days in data set [3] and greater than 20.8 days in [5].

`N[C@@H](CSNC(=O)[C@@H](CCC(F)(F)F)N(Cc1ccc(-c2ncon2)cc1F)S(=O)(=O)c1ccc(Cl)cc1)C(=O)O`: the solubility in data set [1] is 260 µg/mL (≈ 406 µM); in [4] it was 510 µg/mL (≈ 797 µM). Moreover, the half-life at 100 ug/ml was greater than 20.8 days in data set [2], 3 days in data set [3] and 17.4 days in data set [5].

`COC(=O)[C@@H](N)CSNC(=O)[C@@H](CCC(F)(F)F)N(Cc1ccc(-c2ncon2)cc1F)S(=O)(=O)c1ccc(Cl)cc1`: the solubility in [1] amounted to 21 µg/mL (≈ 32.1 µM); in data set [4], 3900 µg/mL (≈ 5960 µM). In addition, the half-life at 100 ug/ml in data set [2] is greater than 20.8 days; in data set [3] it was 0.625 days; in [5], 7.71 days. Also, in data set [6], the area under the curve AUC(0-t) at 24 h lay in the range of 6.03 to 15.8 µM·h. Also, the bioavailability in [7] fell in the range of 107 to 115%. Besides, the maximum concentration (Cmax) in [8] lay within 707 to 1170 nM. Besides, the time of peak concentration (Tmax) in data set [9] came out at 2 h. The concentration at 24 h in data set [10] is 90 to 474 nM.

Consider `CCOC(=O)[C@@H](N)CSNC(=O)[C@@H](CCC(F)(F)F)N(Cc1ccc(-c2ncon2)cc1F)S(=O)(=O)c1ccc(Cl)cc1`, for which the values for the solubility in [1] and in data set [4] were 10 µg/mL (≈ 15 µM) and 4300 µg/mL (≈ 6440 µM), respectively. The half-life at 100 ug/ml in [2] was greater than 20.8 days; in data set [3] it was 0.958 days; in data set [5] it was 10.8 days.

Take `N#CCCSNC(=O)[C@@H](CCC(F)(F)F)N(Cc1ccc(-c2ncon2)cc1F)S(=O)(=O)c1ccc(Cl)cc1`: the solubility in data set [1] and in data set [4] was less than 1 µg/mL in each case. Also, the half-life at 100 ug/ml was greater than 20.8 days in data set [2], 8.21 days in data set [3] and greater than 20.8 days in data set [5].

For the compound `NCCSNC(=O)[C@@H](CCC(F)(F)F)N(Cc1ccc(-c2ncon2)cc1F)S(=O)(=O)c1ccc(Cl)cc1`, the solubility in data set [1] was 321 µg/mL (≈ 539 µM); in data set [4], greater than 10000 µg/mL. For the same compound, the results for the half-life at 100 ug/ml in data set [2], in [3] and in [5] were greater than 20.8 days, 2.17 days and greater than 20.8 days, respectively.

For `NC(=O)[C@@H](CCC(F)(F)F)N(Cc1ccc(-c2ncon2)cc1F)S(=O)(=O)c1ccc(Cl)cc1` [AVAGACESTAT], in data set [1], the solubility is less than 1 µg/mL. The exposure AUC(0-t) at 24 h in [6] is 5.25 to 14.6 µM·h. In data set [8], the highest concentration (Cmax) was 881 to 1150 nM. In addition, the Tmax in data set [9] lay within 1 to 2 h. The compound also returned a concentration at 24 h in [10] of 98 to 442 nM.
